From publication PMC7942396, “Drug Repurposing Screen for Compounds Inhibiting the Cytopathic Effect of SARS-CoV-2” (Frontiers in Pharmacology, 2021)
Counter-ions that a name gives are not always drawn. Like-named read-outs stand apart in the source and are kept apart here.

Legend:
[1] = system: SARS-CoV-2 (USA_WA1/2020); experiment: microbe, parasite or virus in culture; format: cell-based
[2] = human, cited from earlier work; for Cmax: Single dose 600 mg PO, ref Winstanley et al. (1987)
in vitro = settings: African green monkey
Vero E6 cells = Vero E6 cells without virus, 72 h
SARS-CoV = settings: ref Barnard et al., 2008; read-out: EC50, inhibition of SARS-CoV replication; cited from earlier work
[3] = Severe acute respiratory syndrome coronavirus 2, Vero C1008; […]; DMSO 0%, no-virus control 100%; hit confirmation; read-out: CPE % efficacy
[4] = Severe acute respiratory syndrome coronavirus 2, Vero C1008, 72 h; read-out: CPE EC50
[5] = Severe acute respiratory syndrome coronavirus 2, Vero C1008, read-out: CPE % Efficacy
[6] = Severe acute respiratory syndrome coronavirus 2, Vero C1008, SARS-CoV-2 CPE assay, Vero E6 cells; confirmed anti-SARS-CoV-2 compounds; read-out: CPE EC50
[7] = Severe acute respiratory syndrome coronavirus 2, Vero C1008; SARS-CoV-2 CPE assay, Vero E6 cells; efficacy; read-out: CPE % Efficacy
[8] = Severe acute respiratory syndrome coronavirus 2, Vero C1008; SARS-CoV-2 CPE assay, Vero E6 cells; read-out: CPE % Efficacy
[9] = Severe acute respiratory syndrome coronavirus 2, Vero C1008; SARS-CoV-2 CPE assay, Vero E6 cells; read-out: CPE EC50

Compound | cytotoxicity (in vitro) | cytotoxicity at 72 h (in vitro) | EC50 [1, 6] | Emax [1, 7] | CC50 (in vitro) | other results
CNCCC(Oc1ccc(C(F)(F)F)cc1)c1ccccc1 (racemic) [(+/-) -Fluoxetine, reference compound] | < 30% |  |  |  |  | Emax [1, 3]: 116%; Elimination T1/2 ([2]; Single dose 40 mg PO, ref Eli Lilly and Company (1987)): 24 to 72 h
CCN(CC)Cc1cc(Nc2ccnc3cc(Cl)ccc23)ccc1O.Cl.Cl.O.O [Amodiaquine dihydrochloride, reference compound] |  |  |  |  |  | CPE % Efficacy ([1]; […]; DMSO 0%, no-virus control 100%; hit confirmation): 87.2%; EC50 ([1]; read-out: CPE EC50): 4 µM; % Cytotox (Vero E6 cells): <30%; Cmax [2]: 32 ± 3 ng/mL; Cmax ([2]; read-out: Cmax): 69 nM
CN(C)CC/C=C1/c2ccccc2Sc2ccc(Cl)cc21 [Chlorprothixene, reference compound] | < 30% |  |  |  |  | EC50 [1, 4]: 10 µM; Emax [1, 3]: 104%; Elimination T1/2 ([2]; Single dose 100 mg IV, ref Bagli et al. (1996)): 25.8 ± 13.6 h; EC50 (SARS-CoV): ~10 µM
CN1CCC[C@@H]1CCO[C@](C)(c1ccccc1)c1ccc(Cl)cc1 [Clemastine fumarate, reference compound] | < 30% |  |  |  |  | Elimination T1/2 ([2]; Single dose 1.34 mg PO, ref Schran et al. (1996)): 21.3 ± 11.6 h
COC(=O)[C@H]1[C@H]2C[C@@H]3c4[nH]c5ccccc5c4CCN3C[C@H]2C[C@@H](OC(=O)c2cc(OC)c(OC)c(OC)c2)[C@@H]1OC [Deserpidine, reference compound] |  | < 30% |  |  |  | EC50 [1, 4]: 10 µM; Emax [1, 3]: 84.7%; Elimination T1/2 ([2]; Single dose 0.25 mg PO, ref Zhang et al. (2009)): 42.9 ± 17.8 h
CNCC[C@H](Oc1cccc2ccccc12)c1cccs1 [Duloxetine hydrochloride, reference compound] | < 30% |  |  |  |  | EC50 ([1]; Severe acute respiratory syndrome coronavirus 2, Vero C1008, 72 h, read-out: CPE EC50): 10 µM; Emax [1, 5]: 90%; Elimination T1/2 ([2]; 60 mg BID PO, ref Knadler et al. (2011)): 6.96 to 14.9 h
CN(C)C(=O)C(CCN1CCC(O)(c2ccc(Cl)cc2)CC1)(c1ccccc1)c1ccccc1 [Loperamide hydrochloride, reference compound] | < 30% |  |  |  |  | Emax [1, 3]: 98.6%; Elimination T1/2 ([2]; Single dose 2 mg PO, ref Janssen Pharmaceutica Inc. (1998)): 9.1 to 14.4 h
CNCCCC12CCC(c3ccccc31)c1ccccc12 [Maprotiline hydrochloride, reference compound] | < 30% |  |  |  |  | Emax [1, 5]: 104%; Elimination T1/2 ([2]; Single dose 75 mg PO, ref Maguire et al. (1980)): 45 h
c1ccc(-c2cc(CCC3CCNCC3)c3ccccc3n2)cc1 [Pipequaline] |  | 108% | 10 µM | 33.3% |  | CC50 at 72 h (in vitro): 12.6 µM
CN1CCC(=C2c3ccccc3CCc3sccc32)CC1 [Pizotifen] |  | 13.4% | 11.2 µM | 111% |  | CC50 at 72 h (in vitro): 11.2 µM
COC(=O)[C@]1(C)CC[C@]2(C)CC[C@]3(C)C4=CC=C5C(=CC(=O)C(O)=C5C)[C@]4(C)CC[C@@]3(C)[C@@H]2C1 [Pristimerin, reference compound] |  |  |  |  | 1.1 µM | EC50 [1, 4]: 0.11 µM; Emax [1, 3]: 87.4%
CN1CCN(CCCN2c3ccccc3Sc3ccc(Cl)cc32)CC1 [Prochlorperazine dimaleate] | 103% |  |  | 107% | 22.4 µM | 
CCCN(CCC)C(=O)C(CCC(=O)OCCCN1CCN(CCOC(=O)Cc2c(C)n(C(=O)c3ccc(Cl)cc3)c3ccc(OC)cc23)CC1)NC(=O)c1ccccc1 (stereo not shown) [Proglumetacin, reference compound] |  | < 30% |  |  |  | EC50 [1, 4]: 10 µM; Emax [1, 3]: 87.6%
CN(C)CCCN1c2ccccc2Sc2ccccc21 [Promazine hydrochloride] | 9.4% |  | 10 µM | 55.8% |  | 
CC(CN1c2ccccc2Sc2ccccc21)N(C)C (stereo not shown) [Promethazine] |  | 15.4% | 11.2 µM | 94% |  | CC50 at 72 h (in vitro): 15.8 µM
CCCNCC(O)COc1ccccc1C(=O)CCc1ccccc1 (stereo not shown) [Propafenone hydrochloride] | 0% |  |  |  |  | Emax [1, 8]: 61.6%; EC50 [1, 9]: 14.1 µM
CCC(=O)c1ccc2c(c1)N(CCCN(C)C)c1ccccc1S2 [Propionylpromazine hydrochloride] |  | 19.8% | 11.2 µM | 72.3% |  | 
CNCCCC1c2ccccc2C=Cc2ccccc21 [Protriptyline hydrochloride] | 17.4% |  |  |  | 12.6 µM | Emax [1, 5]: 58.2%; EC50 ([1]; Severe acute respiratory syndrome coronavirus 2, Vero C1008, read-out: CPE EC50): 11.2 µM
COCCN1CCN(Cc2ccc(-c3n[nH]c4c3C(=O)c3c(NC(=O)NN5CCOCC5)cccc3-4)cc2)CC1 [RGB-286638] |  | 37.9% | 2.82 µM | 111% |  | CC50 at 72 h (in vitro): 0.32 µM

Compound | cytotoxicity (in vitro) | cytotoxicity at 72 h (in vitro) | EC50 [1, 6] | Emax [1, 7] | CC50 (in vitro) | other results
COC(=O)[C@H]1[C@H]2C[C@@H]3c4[nH]c5cc(OC)ccc5c4CCN3C[C@H]2C[C@@H](OC(=O)/C=C/c2ccc(O)c(OC)c2)[C@@H]1OC [Rescimetol, reference compound] |  | < 30% |  |  |  | EC50 [1, 4]: 8.9 µM; Emax [1, 3]: 81.8%
COC(=O)[C@H]1[C@H]2C[C@@H]3c4[nH]c5cc(OC)ccc5c4CCN3C[C@H]2C[C@@H](OC(=O)c2cc(OC)c(OC)c(OC)c2)[C@@H]1OC [Reserpine] | 13.4% |  | 11.2 µM | 91.8% | 19.9 µM | 
Cc1nc(Nc2ccc(F)cc2)nc(N2CCc3ccccc3C2C)c1C (stereo not shown) [Revaprazan HCl] |  | 49.9% | 5.01 µM | 60.4% |  | 
Oc1ccc(-c2nc(-c3ccncc3)c(-c3ccc(F)cc3)[nH]2)cc1 [SB-202190] |  | 62.4% | 3.98 µM | 95.8% |  | 
CN1CCC(c2cn(C)c3ccc(OS(=O)(=O)c4c(F)cccc4F)cc23)CC1 [SGS 518] | 18.2% |  |  |  | 8.91 µM | Emax [1, 8]: 101%; EC50 [1, 9]: 12.6 µM
CC1(C)CC(=O)c2c(C(F)(F)F)nn(-c3ccc(C(N)=O)c(N[C@H]4CC[C@H](OC(=O)CN)CC4)c3)c2C1 [SNX-5422] | 27.4% |  | 1.58 µM | 33.8% | 0.56 µM | 
O=C(/C=C/c1ccccc1)NC(NC(=S)Nc1cccc2cccnc12)C(Cl)(Cl)Cl (stereo not shown) [Salubrinal] | 15.9% |  | 10 µM | 38.3% | 5.01 µM | 
Cc1cc(O)c2c(c1)O[C@@]1(C)CC[C@H]3C(C)(C)CCC[C@]34CO[C@@H]2[C@H]41 [Siccanin] |  | 0% |  |  |  | Emax [1, 8]: 104%; EC50 [1, 9]: 12.6 µM
O=C(CCCN1CCC2(CC1)C(=O)NCN2c1ccccc1)c1ccc(F)cc1 [Spiperone] |  | 30% | 4.47 µM | 61.2% |  | CC50 at 72 h (in vitro): 3.55 µM
CN1CCN(CC/C=C2/c3ccccc3Sc3ccc(S(=O)(=O)N(C)C)cc32)CC1 [THIOTHIXENE] | 108% |  | 3.98 µM | 70.6% | 12.6 µM | 
CCN(CC)CCOc1ccc2c(c1)C(=O)c1cc(OCCN(CC)CC)ccc1-2 [TILORONE] |  | 97.2% | 3.98 µM | 74.3% |  | CC50 at 72 h (in vitro): 11.2 µM
CC/C(=C(\c1ccccc1)c1ccc(OCCN(C)C)cc1)c1ccccc1 [Tamoxifen] | 93.9% |  |  | 102% |  | 
CN1CCN(CCCN2c3ccccc3Sc3ccc(S(=O)(=O)N(C)C)cc32)CC1 [Thioproperazine dimethanesulfonate] |  | 19.6% | 8.91 µM | 54% |  | CC50 at 72 h (in vitro): 15.8 µM
CC(=O)O[C@@H]1C[C@H](O)[C@@]23CO[C@@H](O)[C@]1(C)[C@@H]2C[C@@H](O)[C@]1(C)[C@@H]3C(=O)[C@H](OC(C)=O)[C@@]2(C)[C@H](c3ccoc3)C[C@H]3O[C@]321 [Toosendanin] | 40.9% |  | 1.19 µM | 88.9% | 2.66 µM | 
CC(CN(C)C)CN1c2ccccc2CCc2ccccc21 (stereo not shown) [Trimipramine maleate] | 19.8% |  | 10 µM | 51.8% | 15.8 µM | 
CC(C)(O)CNc1ncc(-c2ccnc(Nc3ccnc(Cl)c3)n2)c(CC2CC2)n1 [VPS34-IN1, reference compound] |  |  |  |  | 10 µM | Shape of concentration-response in the CPE assay ([1]; Figure 3): bell-shaped concentration-responses due to cytotoxicity; EC50 [1, 4]: 0.63 µM; Emax [1, 3]: 103%
N#Cc1ccc2[nH]cc(CCCCN3CCN(c4ccc5oc(C(N)=O)cc5c4)CC3)c2c1 [Vilazodone Hydrochloride] |  | 25.3% |  |  |  | Emax [1, 8]: 90.8%; EC50 [1, 9]: 12.6 µM; CC50 at 72 h (in vitro): 19.9 µM
CN1CC[C@@H](c2c(O)cc(O)c3c(=O)cc(-c4ccc(C(F)(F)F)cc4Cl)oc23)[C@@H]1CO [Voruciclib] | 12.9% |  |  |  |  | Emax [1, 8]: 39.2%; EC50 [1, 9]: 14.1 µM
O=C(Nc1ccc(-c2ccnc(Nc3ccc(N4CCOCC4)cc3)n2)cc1)C1CCCN1 (stereo not shown) [XL019] | 61.8% |  |  |  | 8.91 µM | Emax [1, 8]: 53.9%; EC50 [1, 9]: 14.1 µM
